Results: PubChem BioAssay AID1918999 (Molecular Pharmacology Branch, DTP, NCI, 2023)

Tested on: 556581-035-R-J1-PDC complex spheroid growth
Assay: Anticancer human tumor 556581-035-R-J1-PDC patient-derived ovarian carcinoma cell line growth inhibition [AhR]
Conditions: for IC50: curve of first compound; for viability, T/C: stronger effect = lower value
Outline: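 Agents were dosed in half-log steps down from roughly clinical Cmax, or from 10 microM where Cmax was unknown, alone and with AhR antagonists. Read-out: percent test/control growth of tumor spheroids containing HUVEC and MSC stromal cells.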

[1] = second compound 0.1 µM, first compound 0.0316 µM
[2] = second compound 0.1 µM, first compound 0.1 µM
[3] = second compound 0.316 µM, first compound 0.0316 µM
[4] = second compound 0.316 µM, first compound 0.1 µM
[5] = second compound 1 µM, first compound 0.0316 µM
[6] = second compound 1 µM, first compound 0.1 µM
[7] = second compound 3.16 µM, first compound 0.0316 µM
[8] = second compound 3.16 µM, first compound 0.1 µM
[9] = second compound 10 µM, first compound 0.0316 µM
[10] = second compound 10 µM, first compound 0.1 µM
[11] = second compound 0.1 µM, first compound 0.316 µM
[12] = second compound 0.1 µM, first compound 1 µM
[13] = second compound 0.1 µM, first compound 3.16 µM
[14] = second compound 0.1 µM, first compound 10 µM
[15] = second compound 0.316 µM, first compound 0.316 µM
[16] = second compound 0.316 µM, first compound 1 µM
[17] = second compound 0.316 µM, first compound 3.16 µM
[18] = second compound 0.316 µM, first compound 10 µM
[19] = second compound 1 µM, first compound 0.316 µM
[20] = second compound 1 µM, first compound 1 µM
[21] = second compound 1 µM, first compound 3.16 µM
[22] = second compound 1 µM, first compound 10 µM
[23] = second compound 3.16 µM, first compound 0.316 µM
[24] = second compound 3.16 µM, first compound 1 µM
[25] = second compound 3.16 µM, first compound 3.16 µM
[26] = second compound 3.16 µM, first compound 10 µM
[27] = second compound 10 µM, first compound 0.316 µM
[28] = second compound 10 µM, first compound 1 µM
[29] = second compound 10 µM, first compound 3.16 µM
[30] = second compound 10 µM, first compound 10 µM
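Wherever viability, T/C is given: compound exposure lasted 7 days; 100% = DMSO vehicle control growth.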

SMILES	IC50 (second compound 0.1 µM) [nM]	IC50 (second compound 0.316 µM) [nM]	IC50 (second compound 1 µM) [nM]	IC50 (second compound 3.16 µM) [nM]	IC50 (second compound 10 µM) [nM]	viability, T/C [1] [%]	viability, T/C [2] [%]	viability, T/C [3] [%]	viability, T/C [4] [%]	viability, T/C [5] [%]	viability, T/C [6] [%]	viability, T/C [7] [%]	viability, T/C [8] [%]	viability, T/C [9] [%]	viability, T/C [10] [%]	viability, T/C [11] [%]	viability, T/C [12] [%]	viability, T/C [13] [%]	viability, T/C [14] [%]	viability, T/C [15] [%]	also measured
CC[C@@]1(O)C(=O)OCc2c1cc1n(c2=O)Cc2cc3c(CN(C)C)c(O)ccc3nc2-1 + Cc1ccccc1N=Nc1ccc(NC(=O)c2ccnn2C)c(C)c1	> 100	> 100	> 100	> 100	> 100	70.4	50.6	69.1	54.9	65	60.3	62.9	53.1	64.7	55.1	–	–	–	–	–	viability, T/C (second compound 0.1 µM, first compound 0.000316 µM): 94.8%; viability, T/C (second compound 0.1 µM, first compound 0.001 µM): 98.5%; viability, T/C (second compound 0.1 µM, first compound 0.00316 µM): 91.5%; viability, T/C (second compound 0.1 µM, first compound 0.01 µM): 82.3%; viability, T/C (second compound 0.316 µM, first compound 0.000316 µM): 108%; viability, T/C (second compound 0.316 µM, first compound 0.001 µM): 104%; viability, T/C (second compound 0.316 µM, first compound 0.00316 µM): 92.6%; viability, T/C (second compound 0.316 µM, first compound 0.01 µM): 73.7%; viability, T/C (second compound 1 µM, first compound 0.000316 µM): 101%; viability, T/C (second compound 1 µM, first compound 0.001 µM): 93.7%; viability, T/C (second compound 1 µM, first compound 0.00316 µM): 84.7%; viability, T/C (second compound 1 µM, first compound 0.01 µM): 79.1%; viability, T/C (second compound 3.16 µM, first compound 0.000316 µM): 81.3%; viability, T/C (second compound 3.16 µM, first compound 0.001 µM): 83%; viability, T/C (second compound 3.16 µM, first compound 0.00316 µM): 83.4%; viability, T/C (second compound 3.16 µM, first compound 0.01 µM): 72%; viability, T/C (second compound 10 µM, first compound 0.000316 µM): 89.2%; viability, T/C (second compound 10 µM, first compound 0.001 µM): 91.4%; viability, T/C (second compound 10 µM, first compound 0.00316 µM): 91.1%; viability, T/C (second compound 10 µM, first compound 0.01 µM): 69%
COc1cc(C2c3cc4c(cc3C(OC3OC5COC(C)OC5C(O)C3O)C3COC(=O)C23)OCO4)cc(OC)c1O (stereo not given) + Cc1ccccc1N=Nc1ccc(NC(=O)c2ccnn2C)c(C)c1	> 10000	> 10000	> 10000	> 10000	> 10000	109	101	110	106	95.9	106	91.9	104	93.2	98	85.4	71	68.8	52.5	85.1	viability, T/C [16]: 75.7%; viability, T/C [17]: 71.5%; viability, T/C [18]: 51.4%; viability, T/C [19]: 92.1%; viability, T/C [20]: 69.7%; viability, T/C [21]: 66.5%; viability, T/C [22]: 53.9%; viability, T/C [23]: 94.2%; viability, T/C [24]: 72%; viability, T/C [25]: 62.5%; viability, T/C [26]: 58.7%; viability, T/C [27]: 89.5%; viability, T/C [28]: 75.8%; viability, T/C [29]: 69.7%; viability, T/C [30]: 56.8%
Nc1ccn(C2OC(CO)C(O)C2(F)F)c(=O)n1 (stereo not given) + Cc1ccccc1N=Nc1ccc(NC(=O)c2ccnn2C)c(C)c1	< 31.6	< 31.6	< 31.6	< 31.6	< 31.6	35.5	41.6	31.9	37.4	38.3	37.2	36.1	36.9	38	42.6	38.4	34.7	35.5	34	38.4	viability, T/C [16]: 37.6%; viability, T/C [17]: 35.4%; viability, T/C [18]: 32.4%; viability, T/C [19]: 41.1%; viability, T/C [20]: 36.2%; viability, T/C [21]: 33.9%; viability, T/C [22]: 30%; viability, T/C [23]: 37.6%; viability, T/C [24]: 37.7%; viability, T/C [25]: 37.1%; viability, T/C [26]: 29%; viability, T/C [27]: 40.9%; viability, T/C [28]: 39.7%; viability, T/C [29]: 37.7%; viability, T/C [30]: 35.6%
